In patent US7932283B2, “Fungicide N-cyclopropyl-sulfonylamide derivatives” (Bayer Cropscience AG, priority 2006, dated 2011):

Legend:
Podosphaera leucotricha = assay: In vivo test on Podosphaera leucotricha (apple mildew), preventive spray; conditions: 240 h, apple young plants, evaluated 10 days after inoculation, good (at least 70%) to total protection
Protocol: In Vivo Test on Podosphaera leucotncha (Apple Mildew) [table] To produce a suitable preparation of active compound, 1 part by weight of active compound is mixed with the stated amounts of solvent and emulsifier, and the concentrate is diluted with water to the desired concentration. Young plants are sprayed with the preparation of active compound at the stated rate of application. After the spray coating has dried on, the plants are inoculated with an aqueous spore suspension of the causal agent of apple mildew (Podosphaera leucobicha). The plants are then placed in a greenhouse at approximately 23° C. and a relative atmospheric humidity of approximately 70%. The test is evaluated 10 days after the inoculation. Under these conditions, good (at least 70%) to total protection is observed at a dose of 100 ppm with the following compounds: 104, 160, 176, 177, 180, 186, 187, 188, 192, 194, 196, 198, 203, 204, 205, 207, 209, 210, 211, 212, 213, 218 and 446.

Pyrenophora teres = assay: In vivo test on Pyrenophora teres (barley net blotch); conditions: 288 h, barley plants (Express variety), grading 12 days after contamination, good (at least 70%) or total protection
Protocol: In Vivo Test on Pyrenophore teres (Barley Net Blotch)
The active ingredients tested are prepared by homogenisation in a mixture of acetone/tween/DMSO, then diluted with water to obtain the desired active material concentration. Barley plants (Express variety) in starter cups, sown on a 50/50 peat soil-pozzolana substrate and grown at 12° C., are treated at the 1-leaf stage (10 cm tall) by spraying with the active ingredient prepared as described above. Plants, used as controls, are treated with the mixture of acetone/tween/DMSO/water not containing the active material.
After 24 hours, the plants are contaminated by spraying them with an aqueous suspension of Pyrenophora teres spores (12,000 spores per ml). The spores are collected from a 12-day-old culture. The contaminated barley plants are incubated for 24 hours at about 20° C. and at 100% relative humidity, and then for 12 days at 80% relative humidity.

[1] = logP by HPLC on reversed-phase column (C 18), EEC Directive 79/B31 Annex V.A8, methods A and B; type: physicochemical; conditions: reversed-phase HPLC column (C 18), linear gradient 10% to 90% acetonitrile
Protocol: Calibration was carried out using unbranched alkan-2-ones (having 3 to 16 carbon atoms) with known logP values (determination of the logP values by the retention times using linear interpolation between two successive alkanones).

[2] = test system: Erysiphe graminis f.sp. horde; assay: In vivo test on Erysiphe graminis (barley mildew), preventive spray; conditions: Blumeria graminis, 168 h, barley young plants, evaluated 7 days after inoculation, good (at least 70%) to total protection
Protocol: In Vivo Test on Erysiphe Graminis (Barley Mildew) [table] To produce a suitable preparation of active compound, 1 part by weight of active compound or active compound combination is mixed with the stated amounts of solvent and emulsifier, and the concentrate is diluted with water to the desired concentration. Young plants are sprayed with the preparation of active compound or active compound combination at the stated rate of application. After the spray coating has dried on, the plants are dusted with spores of Erysiphe graminis f.sp. horde. The plants are placed in a greenhouse at a temperature of approximately 20° C. and a relative atmospheric humidity of approximately 80% to promote the development of mildew pustules. The test is evaluated 7 days after the inoculation. Under these conditions, good (at least 70%) to total protection is observed at a dose of 1000 ppm with the following compounds: 104, 160, 177, 178, 186, 192, 194, 203, 204, 205, 207, 210, 212, 213 and 435.

Puccinia recondita = assay: In vivo test on Puccinia recondita f. sp. tritici (wheat brown rust); conditions: 240 h, wheat plants (Scipion variety), grading 10 days after contamination, good (at least 70%) or total protection
Alternaria solani = assay: In vivo test on Alternaria solani (tomato leaf spot), preventive spray; conditions: 168 h, tomato young plants, evaluated 7 days after inoculation, good (at least 70%) to total protection
Protocol: In Vivo Test on Alternaria Solani (Tomato Leaf Spot) [table] To produce a suitable preparation of active compound, 1 part by weight of active compound is mixed with the stated amounts of solvent and emulsifier, and the concentrate is diluted with water to the desired concentration. Young plants are sprayed with the preparation of active compound at the stated rate of application. After the spray coating has dried on, the plants are inoculated with an aqueous spore suspension of Alternaria solani. The plants remain for one day in an incubation cabinet at approximately 20° C. and a relative atmospheric humidity of 100%. Then the plants are placed in an incubation cabinet at approximately 20° C. and a relative atmospheric humidity of 96%. The test is evaluated 7 days after the inoculation. Under these conditions, good (at least 70%) to total protection is observed at a dose of 500 ppm with the following compounds 110, 143, 160, 175, 176, 178, 179, 180, 186, 187, 189, 192, 196, 198, 203, 204, 205, 209, 210, 212, 214, 215 and 652.

[3] = HPLC reversed-phase C 18, method A: 43° C., 0.1% aqueous phosphoric acid, acetonitrile

Structure (SMILES)	pest or weed control at 100 ppm (Podosphaera leucotricha) [%]	pest or weed control at 500 ppm (Pyrenophora teres) [%]	chromatographic logP ([1]; HPLC reversed-phase C 18, method B: 40° C., 0.1% aqueous formic acid and acetonitrile)	pest or weed control at 1000 ppm [2] [%]	pest or weed control at 500 ppm (Puccinia recondita) [%]	chromatographic logP [1, 3]	pest or weed control at 500 ppm (Alternaria solani) [%]
Cn1nc(C(F)F)c(C(=O)N(C2CC2)S(=O)(=O)c2cccc(O)c2O)c1F [Compound 104]	≥ 70	≥ 70	3.2	≥ 70	≥ 70		
Cc1nn(C)c(F)c1C(=O)N(C1CC1)S(=O)(=O)c1cccc(C(F)(F)F)c1 [Compound 177]	≥ 70			≥ 70		3.03	
Cc1nn(C)c(F)c1C(=O)N(C1CC1)S(=O)(=O)c1ccc(O)c(O)c1 [Compound 178]				≥ 70		3.35	≥ 70
Cc1nn(C)c(F)c1C(=O)N(C1CC1)S(=O)(=O)c1ccc(O)cc1O [Compound 186]	≥ 70			≥ 70		2.94	≥ 70
Cc1nn(C)c(F)c1C(=O)N(C1CC1)S(=O)(=O)c1ccc(C(C)(C)C)cc1 [Compound 192]	≥ 70			≥ 70		3.55	≥ 70
Cc1nn(C)c(F)c1C(=O)N(C1CC1)S(=O)(=O)c1ccc(O)c(C(F)(F)F)c1 [Compound 194]	≥ 70			≥ 70		3.5	
Cc1nn(C)c(F)c1C(=O)N(C1CC1)S(=O)(=O)c1ccccc1OC(F)(F)F [Compound 203]	≥ 70			≥ 70		2.75	≥ 70
Cc1nn(C)c(F)c1C(=O)N(C1CC1)S(=O)(=O)c1ccccc1Br [Compound 204]	≥ 70			≥ 70		2.37	≥ 70
Cc1nn(C)c(F)c1C(=O)N(C1CC1)S(=O)(=O)c1ccccc1F [Compound 205]	≥ 70			≥ 70		2.25	≥ 70
Cc1nn(C)c(F)c1C(=O)N(C1CC1)S(=O)(=O)c1ccccc1C(F)(F)F [Compound 207]	≥ 70			≥ 70		2.6	
Cc1nn(C)c(F)c1C(=O)N(C1CC1)S(=O)(=O)c1cccc(O)c1O [Compound 210]	≥ 70	≥ 70		≥ 70		2.77	≥ 70
Cc1nn(C)c(F)c1C(=O)N(C1CC1)S(=O)(=O)c1ccc(O)c(O)c1O [Compound 212]	≥ 70			≥ 70		3.35	≥ 70
Cc1nn(C)c(F)c1C(=O)N(C1CC1)S(=O)(=O)c1ccc(C(F)(F)F)cc1O [Compound 213]	≥ 70			≥ 70		3.19	
